Laboratory results reported in patent US20250099403A1, “IDENTIFICATION OF ACTIVITIES OF GUT MICROBE METABOLITES” (UNIVERSITY OF SOUTH CAROLINA, priority 2023, published 2025).

What was measured:
Macrophages = experiment: Western blot of TLR4 downstream signaling in LPS-treated macrophages; type: cell-based; conditions: 100 ng/ml LPS, 30 minutes
Description: Macrophages were treated with 100 ng/ml LPS in the presence of increasing concentrations of Sol A or B (from 0 to 20 μM) for 30 minutes. Following treatment, all cellular protein was extracted using MPER lysis buffer (Thermo Scientific). Protein samples were loaded onto SDS-PAGE gels for separation, then transferred to nitrocellulose membranes (Amersham Biosciences). Primary antibodies and HRP-conjugated secondary antibodies (Cell Signaling Technology) were used to detect target proteins. Signal was detected using an ECL kit (Thermo Scientific). […] The housekeeping gene β-Actin was used as a loading control.

TLR4 = experiment: LPS-induced cytokine expression in primary mouse macrophages (RT-qPCR); type: cell-based; conditions: SoL A together with LPS, p≤0.0001
Description: (§1) Primary mouse macrophages were treated with SoL A (as a representative of SoLs) either alone or together with LPS (an agonist of TLR4) or Pam3CSK4 (an agonist of TLR1/2) and the expression of three inflammatory cytokines was measured (IL-6, TNFα, and IL-1β).
Preparation and treatment of macrophages. Primary mouse macrophages were prepared by first introducing 3 mL of 3% thioglycolate to mice via intraperitoneal injection. After 3 days, 10 mL of chilled PBS was introduced intraperitoneally to flush out macrophages. The cell suspension was then separated by centrifugation at 300×g for 5 minutes. […]
mRNA extraction and RT-qPCR in macrophage-based assays. […] The quality and quantity of RNA was then determined using a nanodrop and 1000 ng of mRNA from each sample was used for cDNA synthesis using a First-strand cDNA Synthesis System (Marligen Bioscience), qPCRs reactions were prepared in a 20 uL final volume containing Fast Start Universal SYBR Green Master (Rox) (Roche Applied Science), cDNA template, deionized water, and primers and probes for IL-1β, TNFα, IL-6, and the 18S rRNA which was used as a housekeeping gene Cycling conditions were 95° C. for 10 min followed by 40 cycles of 95° C. for 10 seconds, 60° C. for 15 seconds, and 68° C. for 20 seconds, then a melting curve analysis from 60° C. to 95° C. every 0.2° C. was obtained. […]

MD-2 = target: T1, MD-2 (Homo sapiens, UniProt Q9Y6Y9); experiment: ELISA-based displacement assay with biotinylated LPS; type: binding
T1 construct: purchased Novus Biologicals
T1 sequence (Q9Y6Y9 19-160): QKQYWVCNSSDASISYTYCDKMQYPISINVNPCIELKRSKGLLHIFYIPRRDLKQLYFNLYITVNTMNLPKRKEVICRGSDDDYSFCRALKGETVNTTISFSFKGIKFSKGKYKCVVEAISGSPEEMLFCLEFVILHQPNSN
Description: To experimentally determine if SoLs A and B bind to MD-2 and to what extent the SoLs compete with LPS for binding to MD-2, an ELISA-based displacement assay was conducted. Taking advantage of biotinylated LPS, which retains the activity of unconjugated LPS, absorbance generated by an HRP-linked streptavidin probe was measured to determine the relative amount of MD-2 that was bound with biotin-LPS as opposed to MD-2 bound with SoL A or B. 0.1, 1.0, and 10 µM concentrations of SOL A or B and 1 ng/ml biotin-LPS were administered to MD-2 in three sequences: 1) Sol first followed by LPS 1 hour later, 2) LPS first followed by Sol 1 hour later, and 3) both SoL A or B and LPS at the same time.
ELISA displacement assay. Solid-phase sandwich ELISA kits were purchased from Invitrogen. The ELISA experiments were performed according to the kit instructions, using 50 nM hMD-2 (Novus Biologicals), 1 ng/mL LPS-EB Biotin (Invivogen), and 0.1, 1.0, and 10 µM purified SoL A. SOL A was added to the assay 1 hour before, 1 hour after, or simultaneously with LPS-EB Biotin. Absorbance was measured at 450 nm using a BioTek microplate reader.

[1] = test system: Primary mouse macrophages; experiment: inflammatory cytokine expression in primary mouse macrophages, agent alone (RT-qPCR); type: cell-based; conditions: agent by itself, n=3
Description: as §1
(§2) Preparation and treatment of macrophages. Primary mouse macrophages were prepared by first introducing 3 mL of 3% thioglycolate to mice via intraperitoneal injection. After 3 days, 10 mL of chilled PBS was introduced intraperitoneally to flush out macrophages. The cell suspension was then separated by centrifugation at 300×g for 5 minutes. Cells were seeded in culture dishes containing DMEM with 10% FBS for 1 hour before being washed with serum-free DMEM two times to remove unattached cells. The cells were incubated in serum-free DMEM for 16 hours before treatment. To treat the macrophages, cells were incubated for 6 to 24 hours in DMEM without FBS with addition of LPS (Sigma-Aldrich), Pam3CSK4 (Invivogen), or SoL A. Cells were finally washed twice with Dulbecco's phosphate-buffered saline before being lysed for total RNA or protein extraction.
mRNA extraction and RT-qPCR in macrophage-based assays. […] The quality and quantity of RNA was then determined using a nanodrop and 1000 ng of mRNA from each sample was used for cDNA synthesis using a First-strand cDNA Synthesis System (Marligen Bioscience), qPCRs reactions were prepared in a 20 uL final volume containing Fast Start Universal SYBR Green Master (Rox) (Roche Applied Science), cDNA template, deionized water, and primers and probes for IL-1β, TNFα, IL-6, and the 18S rRNA which was used as a housekeeping gene Cycling conditions were 95° C. for 10 min followed by 40 cycles of 95° C. for 10 seconds, 60° C. for 15 seconds, and 68° C. for 20 seconds, then a melting curve analysis from 60° C. to 95° C. every 0.2° C. was obtained. […] Relative gene expression levels were calculated using the ΔΔCT method and expression levels of 18S were used to normalize the results.

peritoneal macrophages = experiment: inflammatory cytokine expression in macrophages treated with purified SoL A (qRT-PCR); type: cell-based; conditions: 10UM (FIG. 32 legend)
TLR1/2 = experiment: Pam3CSK4-induced cytokine expression in primary mouse macrophages (RT-qPCR); type: cell-based
Description: as §1
On FIG. 16, bars represent mean±standard error. For each treatment, n=3. Significance was determined using Student's t test: * p<0.05, **** p<[…] 0.0001.
as §2, with “To treat the macrophages, cells were incubated for 6 to 24 hours in DMEM without FBS with addition of LPS (Sigma-Aldrich), Pam3CSK4 (Invivogen), or SoL A. Cells were finally washed twice with Dulbecco's phosphate-buffered saline before being lysed for total RNA or protein extraction.” left out
mRNA extraction and RT-qPCR in macrophage-based assays. […] Relative gene expression levels were calculated using the ΔΔCT method and expression levels of 18S were used to normalize the results.

THP-1 monocytes [2] = experiment: M2 polarization of THP-1 derived macrophages (RT-qPCR of markers); type: cell-based; conditions: 10 µM SoL A with IL-4 and IL-1β, 24 hours, n=3
Description: (§3) THP-1 monocytes were treated with IFN-γ and LPS to induce M1 polarization or IL-4 and IL-1β to induce M2 polarization. Successful induction of M1 and M2 polarization was confirmed by morphology changes and subsequent RT-qPCR quantification of cytokine profiles.
(§4) For all treatments, n=3 and significance was determined using one-way ANOVA: 0.001<p<0.01, *** 0.0001<p<0.001, and **** p<0.0001.
(§5) THP-1 monocytes were maintained in RPMI16 with 10% heat inactivated FBS, 1% Penicillin-Streptomycin-Ampotericin B, and 50 μM 2-mercaptoethanol prior to differentiation. The cells were differentiated into macrophages with 150 nM PMA for 48 hours. M1 polarization was induced by adding 20 ng/ml IFN-γ and […] LPS for 24 hours. M2 polarization was induced by adding 20 ng/ml IL-4 and 20 ng/ml IL-1β for 24 hours. In all tests, 10 µM Sol A was added at the same time as M1 and M2 differentiation agents. After 24 hours of treatment, total RNA was collected, and RT-qPCR was performed as described above.

[3] = in vivo inflammation after intraperitoneal injection of SoL A; parameters: species or system mouse; conditions: 1 mg/kg i.p.
Description: To test whether SoL A can induce inflammation in vivo, mice were treated by intraperitoneal (i.p.) injection of 1 mg/kg of SOL A. At 2 hrs post-injection, FACS analysis of immune cells in the peritoneal exudate was performed.

THP-1 monocytes [4] = experiment: M1 polarization of THP-1 derived macrophages (RT-qPCR of markers); type: cell-based; conditions: 10 µM SoL A with IFN-γ and LPS, 24 hours, n=3
Description: as §3, §4, §5

[5] = piroxicam-accelerated Il10-deficient mouse IBD model; type: in vivo
Description: Experimental validation of the predictions of Example 1 were carried out using a mouse model of IBD. […] Stimulation of mucosal Toll-like receptors (TLRs) stemming from this mucosal barrier breakdown was another factor in the selection of this model, as it has been previously shown that SoL A suppresses LPS-induced inflammation and LPS is well-known to activate TLR signaling. […]
Fecal material was collected from IBD 1/10−/−+piroxicam (n=7, female) and pre-IBD control//10−/−mice (n=4, female), extracted metabolites, and the abundance of SoLs was measured by targeted metabolomics using high performance liquid chromatography (HPLC)-high resolution mass spectrometry (HRMS). […] Metabolites with m/z corresponding to major SoLs were detected, specifically SoLs A and B, in all samples tested and their identities were unambiguously determined by HPLC-MS/MS. […]
Peak areas were calculated using TICs obtained after MS/MS fragmentation and used to measure the abundance of SoLs A and B. Significance was determined using Student's t-test. […] Significance was determined using Mann-Whitney U test. […]
Piroxicam-accelerated 1110−/−mouse IBD model and analysis. […] Mice were euthanized at 18 days to collect tissues for assessment and intestinal contents for quantification of SoLs. […] Inflammation scores of colon sections were blindly assessed using an Echo Revolve light microscope and accompanying software. […]

[6] = SoL added first, LPS 1 hour later, vs LPS first or together, all concentrations 0.1, 1.0, 10 µM, 1 ng/ml biotin-LPS
[7] = moving from low to high concentrations of SoL (0.1, 1.0, 10 µM)

| Molecule | LPS-induced IκBα degradation (Macrophages; SoL 0 to 20 μM) | LPS-induced phosphorylation of p38 and ERK1/2 (Macrophages; SoL 0 to 20 μM) | LPS-induced phosphorylation of p38 and ERK1/2 (Macrophages; SoL at 20 µM) | percent absorbance (MD-2 bound with biotin-LPS) (MD-2; [6]) | percent absorbance (MD-2 bound with biotin-LPS) (MD-2; [7]) | expression of inflammatory cytokines (IL-6, TNFα, IL-1β) compared to control [1] | also measured |
| --- | --- | --- | --- | --- | --- | --- | --- |
| CC(C)CCCCCCCCCCC[C@@H](O)CC(=O)N[C@@H](CS(=O)(=O)O)[C@H](O)CCCCCCCCCCCC(C)C [SoL A, sulfobacin A] | concentration-dependently suppressed | reduced LPS-induced phosphorylation of p38 and ERK1/2 in a concentration-dependent manner | almost completely blocked | marked decrease | decreased dramatically | mild to moderate effect | expression of all three cytokines (IL-6, TNFα, IL-1β) induced by LPS (TLR4): significantly suppress; expression levels of pro-inflammatory cytokines IL-1a, IL-1B, IL-6, and TNFα (peritoneal macrophages): significantly increased; Pam3CSK4-induced IL-6 and TNFα expression (TLR1/2; SoL A together with Pam3CSK4): inhibited Pam3CSK4-induced IL-6 and TNFα to a smaller extent; IL-1β expression induced by Pam3CSK4 (TLR1/2; SoL A together with Pam3CSK4, p≤0.05): increasing; effect on M2 polarization (marker expression) (THP-1 monocytes [2]): mostly non-significant effect; monocytes and neutrophils in the peritoneal exudate ([3]; 2 hrs post-injection, FACS): more monocytes (Mono) and neutrophils (Neut) were recruited; serum IL-6 levels ([3]; ELISA): significantly and consistently increased; production of M1-polarized macrophage markers IL-6, CXCL10, IL-12β, and TNFα (THP-1 monocytes [4]): significantly reduced |
| CC(C)CCCCCCCCCCCC(=O)N[C@@H](CS(=O)(=O)O)[C@H](O)CCCCCCCCCCCC(C)C [SoL B, sulfobacin B] | concentration-dependently suppressed | reduced LPS-induced phosphorylation of p38 and ERK1/2 in a concentration-dependent manner | almost completely blocked | marked decrease | decreased dramatically |  |  |
| CN1C(C(=O)Nc2ccccn2)=C(O)c2ccccc2S1(=O)=O [piroxicam] |  |  |  |  |  |  | histological analysis of mouse distal colon ([5]; 1/10−/− mice, diet with 100 ppm piroxicam, 18 days): induced intestinal inflammation; colon expression of inflammatory markers TNFα, NOS2, IL-6, and IL-1β ([5]; 1/10−/−+piroxicam mice vs control, Mann-Whitney U test): significantly increased |
| Pam3CSK4 |  |  |  |  |  | significant induction |  |
| lipopolysaccharide [LPS] |  |  |  |  |  | significant induction |  |
